For series [1], the system named is MC3T3-E1. Kind of series: Cytotoxicity against mouse MC3T3-E1 cells assessed as cell number at 30 uM measured after 4 days by WST-8 assay relative to control. It counts as cell-based. As to conditions: mc3t3-e1, 96 h. On the technique in general: Tetrazolium assays rely on reduction of a dye to a coloured formazan, in cell work by metabolically active cells.
For series [2], the system named is MC3T3-E1. As to the kind of experiment: Osteogenic activity in mouse MC3T3-E1 cells assessed as increase in ALP activity at 30 uM measured after 4 days relative to control. It counts as functional.
In series [3] the test system is MC3T3-E1. As to the kind of experiment: Osteogenic activity in mouse MC3T3-E1 cells assessed as increase in mineralization at 30 uM measured after 10 days by alizarin red S staining based assay. It counts as functional, cell-based.
Series [4] deals with RAW264. Kind of series: Inhibition of RANKL-stimulated osteoclastogenesis in mouse RAW264 cells assessed as reduction in TRAP activity at 20 uM measured after 72 hrs by microscopic analysis. The class given is functional, cell-based.
The subject of series [5] is MC3T3-E1. As to the kind of experiment: Osteogenic activity in mouse MC3T3-E1 cells assessed as increase in mineralization at 0.1 to 60 uM measured after 10 days by alizarin red S staining based assay. It counts as functional, cell-based.
Series [6] has as its system MC3T3-E1. As to the kind of experiment: Osteogenic activity in mouse MC3T3-E1 cells assessed as increase in mineralization at 60 uM measured after 10 days by alizarin red S staining based assay. The class given is functional, cell-based.
Series [7] deals with MC3T3-E1. Kind of series: Osteogenic activity in mouse MC3T3-E1 cells assessed as increase in ALP activity at 60 uM measured after 4 days relative to control. The class given is functional.
Series [8] has as its system MC3T3-E1. As to the kind of experiment: Cytotoxicity against mouse MC3T3-E1 cells assessed as cell number at 60 uM measured after 4 days by WST-8 assay relative to control. Conditions: mc3t3-e1, 96 h. The class given is cell-based.
The species named for series [9] is Mus musculus. Kind of series: Activation of BMP signaling pathway in mouse MC3T3-E1 cells assessed as increase in Runx2 mRNA expression at 10 uM after 2 days by SYBR green-dye based RT-PCR method relative to control. The class given is cell-based.
Series [10] relates to MC3T3-E1. As to the kind of experiment: Osteogenic activity in mouse MC3T3-E1 cells assessed as increase in mineralization at 30 uM measured after 10 days in presence of type-1 BMP receptor kinase inhibitor LDN-193189 by alizarin red S staining based assay. It counts as functional, cell-based.
The target of series [11] is T1, SMAD1/5/9 (Mus musculus) (UniProt P70340+P97454+Q9JIW5). As to the kind of experiment: Induction of Smad1/5/8 phosphorylation in mouse MC3T3-E1 cells assessed as ratio of phosphorylated Smad1/5/8 to actin beta protein level at 30 uM measured after 15 mins by Western blot analysis relative to control. It counts as cell-based. (A western blot detects proteins with antibodies after separation by electrophoresis.)

The species named for series [12] is Mus musculus. As to the kind of experiment: Activation of BMP signaling pathway in mouse MC3T3-E1 cells assessed as increase in Runx2 mRNA expression after 2 days by SYBR green-dye based RT-PCR method. The class given is cell-based.
For series [13], the target named is T2, MAP kinase p38 (Mus musculus) (UniProt P47811+O08911+Q9WUI1+Q9Z1B7). Kind of series: Induction of p38 MAPK phosphorylation in mouse MC3T3-E1 cells assessed as ratio of phosphorylated p38 to unphosphorylated p38 protein level at 30 uM measured after 5 mins by Western blot analysis relative to control. It counts as cell-based.
Series [14] concerns RAW264. As to the kind of experiment: Inhibition of RANKL-stimulated osteoclastogenesis in mouse RAW264 cells assessed as reduction in TRAP-positive multinucleated cells at 20 uM measured after 72 hrs by TRAP staining based microscopic analysis. It counts as functional, cell-based.
The species named for series [15] is Mus musculus. Kind of series: Activation of BMP signaling pathway in mouse MC3T3-E1 cells assessed as increase in Alpl mRNA expression at 10 uM after 2 days by SYBR green-dye based RT-PCR method relative to control. The class given is cell-based.
For series [16], the species on record is Mus musculus. Kind of series: Activation of BMP signaling pathway in mouse MC3T3-E1 cells assessed as increase in Bglap mRNA expression after 2 days by SYBR green-dye based RT-PCR method. The class given is cell-based.
For series [17], the species on record is Mus musculus. Kind of series: Activation of BMP signaling pathway in mouse MC3T3-E1 cells assessed as increase in Bglap mRNA expression at 10 uM after 2 days by SYBR green-dye based RT-PCR method relative to control. It counts as cell-based.
Series [18] has as its target T1, SMAD1/5/9 (Mus musculus). Kind of series: Induction of Smad1/5/8 phosphorylation in mouse MC3T3-E1 cells assessed as ratio of phosphorylated Smad1/5/8 to actin beta protein level at 30 uM measured after 5 mins by Western blot analysis relative to control. The class given is cell-based.
For series [19], the species on record is Mus musculus. As to the kind of experiment: Activation of BMP signaling pathway in mouse MC3T3-E1 cells assessed as increase in Osterix mRNA expression after 2 days by SYBR green-dye based RT-PCR method. The class given is cell-based.
For series [20], the target named is T2, MAP kinase p38 (Mus musculus). Kind of series: Induction of p38 MAPK phosphorylation in mouse MC3T3-E1 cells assessed as ratio of phosphorylated p38 to unphosphorylated p38 protein level at 30 uM measured after 15 mins by Western blot analysis relative to control. It counts as cell-based.
The species named for series [21] is Mus musculus. Kind of series: Activation of BMP signaling pathway in mouse MC3T3-E1 cells assessed as increase in Osterix mRNA expression at 10 uM after 2 days by SYBR green-dye based RT-PCR method relative to control. It counts as cell-based.
The subject of series [22] is MC3T3-E1. As to the kind of experiment: Osteogenic activity in mouse MC3T3-E1 cells assessed as increase in mineralization at 30 uM measured after 10 days in presence of p38 MAPK inhibitor SB203580 by alizarin red S staining based assay. It counts as functional, cell-based.
Series [23] concerns the target T2, MAP kinase p38 (Mus musculus). Kind of series: Induction of p38 MAPK phosphorylation in mouse MC3T3-E1 cells assessed as ratio of phosphorylated p38 to unphosphorylated p38 protein level at 30 uM measured after 30 mins by Western blot analysis relative to control. It counts as cell-based.
Series [24] is filed under the species Mus musculus. As to the kind of experiment: Activation of BMP signaling pathway in mouse MC3T3-E1 cells assessed as increase in Alpl mRNA expression after 2 days by SYBR green-dye based RT-PCR method. The class given is cell-based.
Series [25] concerns MC3T3-E1. Kind of series: Osteogenic activity in mouse MC3T3-E1 cells assessed as increase in mineralization at 30 uM measured after 10 days in presence of BMP2 inhibitor noggin by alizarin red S staining based assay. It counts as functional, cell-based.
Series [26] addresses T1, SMAD1/5/9 (Mus musculus). As to the kind of experiment: Induction of Smad1/5/8 phosphorylation in mouse MC3T3-E1 cells assessed as ratio of phosphorylated Smad1/5/8 to actin beta protein level at 30 uM measured after 30 mins by Western blot analysis relative to control. The class given is cell-based.
Series [27] has as its system MC3T3-E1. Kind of series: Osteogenic activity in mouse MC3T3-E1 cells assessed as increase in mineralization at 10 uM measured after 10 days by alizarin red S staining based assay. The class given is functional, cell-based.
In series [28] the test system is MC3T3-E1. Kind of series: Osteogenic activity in mouse MC3T3-E1 cells assessed as increase in ALP activity at 10 uM measured after 4 days relative to control. It counts as functional, cell-based.

Activity calls are given as the source filed them. The calls are words filed in the database; no cut-off is given here.

Consider `C#Cc1ccc(/C=C/c2cc(OC)cc(=O)o2)cc1`, for which the fold change (FC) is 0.85 to 1.25 in series [1] and 1.32 - 2.87 in series [2]. In series [3], the outcome was Active.

In the case of `COc1cc(/C=C/c2ccccc2)oc(=O)c1` [DESMETHOXYYANGONIN], the inhibition entry in [4] was “inactive”. Besides, the outcome in [5] and in series [6] was Active. Also, the fold change (FC) in series [1] was 0.85 to 1.25; in series [7], 1.25; in series [8], 0.85 to 1.25.

Regarding `COc1cc(/C=C/C2CCCC2)oc(=O)c1`, the fold change (FC) in series [1] fell in the range of 0.85 to 1.25. The outcome in series [2] and in series [3] was inactive.

Regarding `COc1cc(/C=C/c2ccc(C(F)(F)F)cc2)oc(=O)c1`, the fold change (FC) in series [1] was 0.85 to 1.25; in [2] it was 1.32 - 2.87. The result in [3] was Active.

In the case of `CCOc1ccc(/C=C/c2cc(OC)cc(=O)o2)cc1`, the fold change (FC) in series [1] is 0.85 to 1.25; in [2], 1.32 - 2.87. For the same compound, in series [3], the outcome was Active.

For `CCCOc1cc(/C=C/c2ccccc2)oc(=O)c1`, the result in [5] and in [3] was inactive.

For `CCc1ccccc1/C=C/c1cc(OC)cc(=O)o1`, the fold change (FC) in series [1] was in the range of 0.85 to 1.25. Further, the result in series [2] and in [3] was inactive.

With `COc1cc(/C=C/c2ccc(Cl)cc2)oc(=O)c1`, the figures for the fold change (FC) in series [1] and in series [2] were 0.85 to 1.25 and 1.32 - 2.87, respectively. Further, the result in series [3] was Active.

With `CCc1ccc(/C=C/c2cc(OC)cc(=O)o2)cc1`, the fold change (FC) is 1.5 in series [9]; 0.85 to 1.25 in series [1]; 2.23 in series [15]; 1.92 in [17]; 1.32 - 2.87 in [2]; 2.61 in series [21]. Also, the inhibition result in series [4] and in series [14] was “Active” in each case. Further, the result in [10], in series [22] and in series [25] was inactive. Moreover, the Ratio came out at 1 in [11]; 1.8 in series [13]; 1.1 in series [18]; 1.7 in [20]; 1.2 in series [23]; 1 in series [26]. Also, the Activity result in series [12], in [16], in series [19] and in series [24] was “Dose-dependent effect” each time. Further, the outcome in [3] was Active.

With `COc1cc(/C=C/C2CCCCC2)oc(=O)c1`, the fold change (FC) in series [1] is 0.85 to 1.25; in series [2], 1.32 - 2.87. Moreover, the outcome in series [3] was Active.

For `COc1cc(/C=C/c2ccc(C(C)(C)C)cc2)oc(=O)c1`, the result in series [27] and in series [28] was Active. Besides, the fold change (FC) in series [1] lay within 0.85 to 1.25.

`CCOc1cc(/C=C/c2ccccc2)oc(=O)c1`: the outcome in series [5] and in series [3] was inactive. Also, in series [1], the fold change (FC) is 0.85 to 1.25.

These data come from ChEMBL document CHEMBL4017476, “Synthesis of novel 5,6-dehydrokawain analogs as osteogenic inducers and their action mechanisms” (Bioorg Med Chem Lett, 2017).
